Assay results as given in US10189777B2, “Benzenesulfonamido and related compounds for use as agonists of RORγ and the treatment of disease” (Lycera Corporation, priority 2014, dated 2019).

How the values were obtained:
[1] = molecular target: T1, Gal4-RORγ-LBD (Homo sapiens, UniProt P51449); assay: Gal4-RORγ Luciferase Reporter Assay in HEK-293T Cells; assay type: cell-based; conditions: for EC50: HEK-293 cells, with 2 μM ursolic acid, incubated overnight, luciferase readout; for Gal4-RORγ Assay Max Response: upper plateau of 4-parameter fit, luciferase signal in the absence of ursolic acid or test compound defined at 100
T1 construct: expressed in transfected cells
T1 sequence (P51449 269-508 limits assumed): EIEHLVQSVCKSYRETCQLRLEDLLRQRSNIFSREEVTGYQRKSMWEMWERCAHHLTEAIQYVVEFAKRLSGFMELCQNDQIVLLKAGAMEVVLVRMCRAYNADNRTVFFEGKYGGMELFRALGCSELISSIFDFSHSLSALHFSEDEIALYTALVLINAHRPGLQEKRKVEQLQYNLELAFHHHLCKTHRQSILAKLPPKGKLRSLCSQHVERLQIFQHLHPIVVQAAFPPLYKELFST
Protocol: (§1) Exemplary compounds from the above Examples were tested for ability to increase RORγ activity using (i) a RORγ-Ligand Binding Domain (LBD) TR-FRET Assay, and (ii) a Gal4-RORγ Luciferase Reporter Assay in HEK-293T Cells. Assay procedures and results are described below.
Part II—Procedures for Gal4-RORγ Luciferase Reporter Assay in HEK-293T Cells
Transfection of HEK-293 Cells
In the following protocol, HEK-293 cells were transfected with a construct comprising the Gal4 DNA binding domain fused to the ligand binding domain of RORγ (Gal4-RORγ-LBD) in a pcDNA3.1neo plasmid, and also with a reporter construct comprising pGL4.31 Gal4-luciferase (Promega). Control cells were prepared similarly using empty pcDNA3.1neo and pGL4.31 vectors.
Trans-IT reagent (Mirus, 60 μL) at room temperature was added drop wise to OptiMEM (Invitrogen, 1.5 ml). This reagent mixture was mixed by inversion then incubated for 5 to 30 minutes at room temperature. It then was added to a solution of both expression vectors (5 μg each), mixed, and incubated at room temperature for about 20 minutes. HEK-293 cells were harvested from incubation flasks by removing the media, treating with TrypLE Express (Invitrogen), and incubating until the cells detached from the bottom of the flask (approximately 2-5 minutes). 10 Million cells were collected by centrifugation and re-suspended in 10 mL of Dulbecco's Modified Eagle Medium, High Glucose (DMEM, Invitrogen) containing 10% Fetal Bovine Serum and 100 IU each of penicillin and streptomycin. The re-suspended cells and the transfection mixture were added to a T75 flask, mixed and incubated overnight at 37° C. and 5% CO2.
The cells were harvested as described above, counted, and centrifuged to obtain the desired number of cells, then re-suspended in complete growth media at 0.75×10^6 cells/mL. The RORγ antagonist, ursolic acid, was added to the cells at a final concentration of 2 μM. Cells were plated at 20 μL of cell suspension/well (10,000-15,000 cells/well) in white tissue culture treated 384 well plates. Test compounds were dissolved at 10 mM in DMSO then diluted into complete growth medium to 5× the final intended test concentration. These drug stock solutions, 5 μL/well were added to the tissue culture plate. The final DMSO concentration was 0.2%. The plates were briefly centrifuged then incubated overnight at 37° C. and 5% CO2. To conduct the assay, the tissue culture plates were allowed to equilibrate to room temperature and One-Glo luciferase reagent (Promega, 25 μL/well) was added. The plates were briefly centrifuged then incubated at room temperature for 10 minutes. The luciferase intensity was read on an Envision plate reader (Perkin Elmer). RORγ activity was determined relative to controls and plotted as a function of test compound concentration using PRISM (GraphPad) to determine a 50% effective concentration (EC50). The luciferase signal in the absence of ursolic acid or test compound is defined at 100. The Max Response is the upper plateau in the signal as determined by line-fit using a 4-parameter logistic model in PRISM (GraphPad).

[2] = molecular target: T2, HIS-tagged RORγ-LBD protein (Homo sapiens, UniProt P51449); assay: RORγ-Ligand Binding Domain (LBD) TR-FRET Assay; assay type: biochemical; conditions: for TR-FRET Assay Max Response: upper plateau of 4-parameter fit, signal in the absence of ursolic acid or test compound set as 100; for EC50: with 2 μM RORγ antagonist ursolic acid, biotinylated SRC1 LXXLL peptide, ratio 665 nm/615 nm
T2 construct: made in house; host or cells: SF9 cells, baculovirus expression system; the lysate was used
T2 sequence (P51449 269-508 limits assumed): T1 sequence (P51449 269-508 limits assumed)
Protocol: as §1
Part I—Procedures for RORγ-Ligand Binding Domain TR-FRET Assay
HIS-tagged RORγ-LBD protein was expressed in SF9 cells using a baculovirus expression system. The lysate was diluted in assay buffer (50 mM Tris pH 7.0, 50 mM KCl, 1 mM EDTA, 0.1 mM DTT, 0.01% BSA) to obtain RORγ-LBD final concentration of −3 nM in a 384-well assay plate (need to titrate for each batch of protein).
A stock of biotinylated-LXXLL peptide from coactivator SRC1 (Biotin-[…]) was prepared in assay buffer and added to each well (200 nM final concentration). A solution of Europium tagged anti-HIS antibody (0.6 nM final concentration) and APC-conjugated streptavidin (30 nM final concentration) were also added to each well. RORγ antagonist ursolic acid was also included at a final concentration of 2 μM. Compounds were diluted in DMSO and further diluted in assay buffer with a final DMSO concentration at 1%.
The final assay mixture was incubated overnight at 4° C. or 2 hours at room temperature, and the fluorescence signal was measured on an Envision plate reader: (Excitation filter=340 nm; APC emission=665 nm; Europium emission=615 nm; dichroic mirror=D400/D630; delay time=100 μs, integration time=200 μs). 50% Effective concentration (EC50) values for test compounds were calculated from the quotient of the fluorescence signal at 665 nm divided by the fluorescence signal at 615 nm. The quotient of the fluorescence signals in the absence of ursolic acid or test compound is set as 100. Max Response is defined as the upper plateau in the signal as determined by line-fit using a 4-parameter logistic model in PRISM (GraphPad).

Structure (SMILES) | EC50 [1] | Gal4-RORγ Assay Max Response [1] | TR-FRET Assay Max Response [2] | EC50 [2]
CCN(c1cccc(OC2CCc3cccc(F)c32)c1)S(=O)(=O)c1cccc(C(F)(F)F)c1 (stereo not shown) | > 10 µM | **** (The symbol “****” indicates a value greater than 200) | *** (The symbol “***” indicates a value in the range of greater than 150 to 200) | < 0.5 µM
CCN(c1cccc(OC2CCc3cccc(Cl)c32)c1)S(=O)(=O)c1cccc(C(F)(F)F)c1 (stereo not shown) | 5 to 10 µM | *** (The symbol “***” indicates a value in the range of greater than 150 to 200) | *** (The symbol “***” indicates a value in the range of greater than 150 to 200) | < 0.5 µM
CCN(c1cccc(OCc2c(Cl)cccc2Cl)c1)S(=O)(=O)c1cccc(C(F)(F)F)c1 | 0.5 to 5 µM | ** (The symbol “**” indicates a value in the range of greater than 90 to 150) | *** (The symbol “***” indicates a value in the range of greater than 150 to 200) | < 0.5 µM
CCN(c1cccc(OCCc2c(Cl)cccc2Cl)c1)S(=O)(=O)c1cccc(C(F)(F)F)c1 | 0.5 to 5 µM | ** (The symbol “**” indicates a value in the range of greater than 90 to 150) | **** (The symbol “****” indicates a value greater than 200) | 0.5 to 5 µM
CCN(c1cccc(OCCc2c(F)cccc2Cl)c1)S(=O)(=O)c1cccc(C(F)(F)F)c1 | > 10 µM | ** (The symbol “**” indicates a value in the range of greater than 90 to 150) | *** (The symbol “***” indicates a value in the range of greater than 150 to 200) | 0.5 to 5 µM
CCN(c1cccc(OCc2c(F)cccc2C(F)(F)F)c1)S(=O)(=O)c1cccc(C(F)(F)F)c1 | 0.5 to 5 µM | ** (The symbol “**” indicates a value in the range of greater than 90 to 150) | **** (The symbol “****” indicates a value greater than 200) | < 0.5 µM
CCN(c1cccc(OCc2c(F)cccc2OC)c1)S(=O)(=O)c1cccc(C(F)(F)F)c1 | > 10 µM | – | **** (The symbol “****” indicates a value greater than 200) | < 0.5 µM
CCN(c1cccc(OCc2cc(Cl)ccc2Cl)c1)S(=O)(=O)c1cccc(C(F)(F)F)c1 | 5 to 10 µM | *** (The symbol “***” indicates a value in the range of greater than 150 to 200) | **** (The symbol “****” indicates a value greater than 200) | < 0.5 µM
CCN(c1cccc(OCc2ccccc2Cl)c1)S(=O)(=O)c1cccc(C(F)(F)F)c1 | 0.5 to 5 µM | ** (The symbol “**” indicates a value in the range of greater than 90 to 150) | **** (The symbol “****” indicates a value greater than 200) | 0.5 to 5 µM
CCOc1nn(CC)cc1S(=O)(=O)N(CC)c1cccc(OC2CCc3ccccc32)c1 (stereo not shown) | > 10 µM | – | **** (The symbol “****” indicates a value greater than 200) | 0.5 to 5 µM
CCOc1nn(CC)cc1S(=O)(=O)N(CC)c1cccc(OCc2c(F)cccc2Cl)c1 | 0.5 to 5 µM | ** (The symbol “**” indicates a value in the range of greater than 90 to 150) | **** (The symbol “****” indicates a value greater than 200) | 0.5 to 5 µM
CCN(c1cccc(NCc2ccccc2Cl)c1)S(=O)(=O)c1cccc(C(F)(F)F)c1 | 0.5 to 5 µM | ** (The symbol “**” indicates a value in the range of greater than 90 to 150) | **** (The symbol “****” indicates a value greater than 200) | < 0.5 µM
CCC(c1ccc(OCc2c(F)cccc2Cl)cc1)S(=O)(=O)c1cccc(C(F)(F)F)c1 (stereo not shown) | < 0.5 µM | ** (The symbol “**” indicates a value in the range of greater than 90 to 150) | *** (The symbol “***” indicates a value in the range of greater than 150 to 200) | < 0.5 µM
CCC(c1cccc(OCc2ccccc2)c1)S(=O)(=O)c1cccc(C(F)(F)F)c1 (stereo not shown) | 0.5 to 5 µM | * (The symbol “*” indicates a value in the range of 70 to 90) | ** (The symbol “**” indicates a value in the range of greater than 90 to 150) | 5 to 10 µM
CCC(c1ccc(OCc2c(F)cccc2Cl)cc1)S(=O)(=O)c1ccc(Cl)cc1 (stereo not shown) | 0.5 to 5 µM | * (The symbol “*” indicates a value in the range of 70 to 90) | *** (The symbol “***” indicates a value in the range of greater than 150 to 200) | < 0.5 µM
